The subject of one data set is C. diphtheriae. Put plainly: MIC, broth dilution method. The class given is cell-based. To be noted: Corynebacterium diphtheriae, read-out: MIC Anti-Bacterial Activity. As for the experimental part: (§1) Antibacterial activity can be determined by several standard methods well known by those skilled in the art, including disc diffusions methods, broth dilution minimal inhibitory concentration (MIC) methods, etc., including the detailed method outlined below. Cultures of bacteria are initially brought up from the freezer by streaking a loopful onto agar plates under the appropriate conditions. For instance stocks are streaked onto chocolate agar and then incubated for 18 hours at 35-37° C. in a 5% CO2 incubator. Five to 10 colonies are picked from the chocolate agar plate for subculture to Brain-Heart Infusion (BHI) broth or Mueller Hinton broth or BHI containing 4% serum and incubated under the appropriate conditions. The ability of the test compound to act as an antimicrobial is determined by the ability to inhibit bacterial, algae, or fungal growth in vitro. The optical density of the culture of organisms in the presence of an active compound is compared to the optical density of the same organism untreated. The activity of the compounds is described as either negative or the lowest concentration inhibiting growth.

A further data set concerns H. influenzae. Description: MIC, broth dilution method. The class given is cell-based. To be noted: Haemophilus influenzae, read-out: MIC Anti-Bacterial Activity. As for the experimental part: as §1
For another data set, the system named is M. catarrhalis. Put plainly: MIC, broth dilution method. The class given is cell-based. As to conditions: Moraxella catarrhalis, read-out: MIC Anti-Bacterial Activity. Here is the method:
as §1

For the next data set, the system named is S. pneumoniae. Description: MIC, broth dilution method. The data set is classed as cell-based. As to conditions: Streptococcus pneumoniae, read-out: MIC Anti-Bacterial Activity. As for the experimental part:
as §1

In a further data set the test system is E. faecalis. Put plainly: MIC, broth dilution method. The class given is cell-based. As to conditions: Enterococcus faecalis, read-out: MIC Anti-Bacterial Activity. Here is the method: as §1
The next data set deals with M. smegimatis. Put plainly: MIC, broth dilution method. The data set is classed as cell-based. As to conditions: read-out: MIC Anti-Bacterial Activity. As for the experimental part: as §1
The test system of the next data set is S. pyogenes. Description: MIC, broth dilution method. The data set is classed as cell-based. As to conditions: Streptococcus pyogenes, read-out: MIC Anti-Bacterial Activity. As for the experimental part: as §1
The next data set relates to S. aureus. Put plainly: MIC, broth dilution method. The class given is cell-based. As to conditions: for MIC: Staphylococcus aureus, read-out: Antibacterial Activity against S. aureus MIC. As for the experimental part:
as §1

A further data set deals with S. epidermidis. Description: MIC, broth dilution method. The class given is cell-based. As to conditions: Staphylococcus epidermidis, read-out: MIC Anti-Bacterial Activity. Here is the method:
as §1

Converted amounts (≈) assume the structure as drawn.

Regarding `CCCCC1CC(c2ccc(O)cc2)(c2ccc(O)c(Cl)c2)C1` (stereo not drawn) [Example 7, 1-(4-Hydroxyphenyl)-1-(4-hydroxy-3-chlorophenyl)-3-n-butyl-cyclobutane], the MIC came out at 2 µg/mL (≈ 6.04 µM) in the data set on C. diphtheriae; 6 µg/mL (≈ 18.1 µM) with H. influenzae; 1 µg/mL (≈ 3.02 µM) in the data set with M. catarrhalis; 3 µg/mL (≈ 9.07 µM) in the data set on S. pneumoniae; 2 µg/mL (≈ 6.04 µM) in the data set with E. faecalis; 1 µg/mL (≈ 3.02 µM) in the data set with M. smegimatis. Further, the figures for the MIC with S. pyogenes, in the data set on S. aureus and with S. epidermidis were 6 µg/mL (≈ 18.1 µM), 1 µg/mL (≈ 3.02 µM) and 1 µg/mL (≈ 3.02 µM), respectively.
`CC(C)(C)C1CCC1(c1ccc(O)c(Cl)c1)c1ccc(O)c(Cl)c1` (stereo not drawn) [Example 25, 1,1-Di-(3-chloro-4-hydroxyphenyl)-2-(1,1-dimethylethyl)cyclobutane]: the melting point is 133 to 135 °C. Moreover, in the data set on S. aureus, the MIC turned out to be 0.8 µg/mL (≈ 2.19 µM).
`CCCC1CC(c2ccc(O)cc2)(c2ccc(O)c(Cl)c2)C1` (stereo not drawn) [Example 4, 1-(4-Hydroxyphenyl)-1-(4-hydroxy-3-chloro-phenyl)-3-n-propyl-cyclobutane]: the MIC amounted to 2 µg/mL (≈ 6.31 µM) in the data set on C. diphtheriae; 6 µg/mL (≈ 18.9 µM) with H. influenzae; 1 µg/mL (≈ 3.16 µM) with M. catarrhalis; 3 µg/mL (≈ 9.47 µM) in the data set with S. pneumoniae; 3 µg/mL (≈ 9.47 µM) in the data set with E. faecalis; 2 µg/mL (≈ 6.31 µM) in the data set on M. smegimatis. Besides, the values for the MIC in the data set on S. pyogenes, in the data set on S. aureus and with S. epidermidis were 13 µg/mL (≈ 41 µM), 2 µg/mL (≈ 6.31 µM) and 2 µg/mL (≈ 6.31 µM), respectively.
Consider `CCCCC1CC1(c1ccc(O)c(C)c1)c1ccc(O)c(C)c1` (stereo not drawn) [Example 10, 1,1-Bis(4-hydroxy-3-methylphenyl)-2-n-butylcyclopropane], for which, in the data set on S. aureus, the MIC was found to be 3 µg/mL (≈ 9.66 µM).
Turning to “Trans-1,1-di-(4-hydroxy-3-methylphenyl)-3-(2,2-dimethylpropyl)-2-methylcyclobutane [Example 15]”, in the data set with S. aureus (S. aureus), the “Antibacterial Activity against S. aureus MIC” value came to 0.4 µg/mL.
On to `CCCCCC1CC(c2cc(C)c(O)c(C)c2)(c2cc(C)c(O)c(C)c2)C1` [Example 32, 1,1-Di(3,5-dimethyl-4-hydroxyphenyl)-3-n-pentylcyclobutane], for which the melting point is 115 to 117 °C. Further, the MIC with S. aureus is 1.6 µg/mL (≈ 4.37 µM).
The matching figures for `CCCCCC1CC(c2ccc(O)c(CC)c2)(c2ccc(O)c(CC)c2)C1` [Example 31, 1,1-Di(3-ethyl-4-hydroxyphenyl)-3-n-pentylcyclobutane]: 109 to 111 °C and 1.6 µg/mL (≈ 4.37 µM).
For `Cc1cc(C2(c3cc(C)c(O)c(Cl)c3)C[C@@H](CC(C)(C)C)[C@@H]2C)ccc1O` (relative stereo) [Example 28, Trans-1-(4-hydroxy-3-methylphenyl)-1-(5-chloro-4-hydroxy-3-methylphenyl)-3-(2,2-dimethylpropyl)-2-methylcyclobutane], the melting point was 138 to 140 °C. Besides, in the data set with S. aureus, the MIC was determined as 6.2 µg/mL (≈ 16 µM).
Regarding `CCCC1CC(c2ccc(O)cc2)(c2ccc(O)cc2)C1` [Example 3, 1,1-Bis(4-hydroxyphenyl)-3-n-propyl-cyclobutane], the MIC in the data set on C. diphtheriae was found to be 6 µg/mL (≈ 21.2 µM); in the data set on H. influenzae, 13 µg/mL (≈ 46 µM); with M. catarrhalis it was 3 µg/mL (≈ 10.6 µM); in the data set with S. pneumoniae, 6 µg/mL (≈ 21.2 µM); with E. faecalis, 13 µg/mL (≈ 46 µM); in the data set on M. smegimatis it was 6 µg/mL (≈ 21.2 µM). For the same compound, the MIC came out at 13 µg/mL (≈ 46 µM) in the data set with S. pyogenes, 8 µg/mL (≈ 28.3 µM) with S. aureus and 6 µg/mL (≈ 21.2 µM) in the data set on S. epidermidis.
On to `CCCCC1CC1(c1ccc(O)c(Cl)c1)c1ccc(O)c(Cl)c1` (stereo not drawn) [Example 20, 1,1-Di(3-chloro-4-hydroxyphenyl)-2-n-butylcyclopropane], for which, in the data set with S. aureus, the MIC amounted to 1.6 µg/mL (≈ 4.55 µM).
Compound `Cc1cc(C2(c3ccc(O)c(C)c3)CC(CC(C)(C)C)C2)ccc1O` [Example 12, 1,1-Di(4-hydroxy-3-methylphenyl)-3-(2,2-dimethylpropyl)cyclobutane] displayed a melting point of 175 to 176 °C. Besides, in the data set with S. aureus, the MIC worked out at 1.6 µg/mL (≈ 4.73 µM).
In the case of `CC(C)(C)C1CC(c2ccc(O)cc2)(c2ccc(O)cc2)C1` [Example 17, 1,1-Di-(4-hydroxyphenyl)-3-(1,1-dimethylethyl)cyclobutane], the MIC in the data set on S. aureus stood at 6.2 µg/mL (≈ 20.9 µM).
Regarding `CCCCCC1CC1(c1ccc(O)c(Cl)c1)c1cc(Cl)c(O)c(Cl)c1` (stereo not drawn) [Example 23, 1-(3-Chloro-4-hydroxyphenyl)-1-(4-hydroxy-3,5-dichlorophenyl)-2-pentylcyclopropane], in the data set on S. aureus, the MIC was 1.6 µg/mL (≈ 4 µM).
Take `C[C@H]1[C@H](CC(C)(C)C)CC1(c1ccc(O)cc1)c1ccc(O)cc1` (relative stereo) [Example 13, Trans-1,1-di(4-hydroxyphenyl)-3-(2,2-dimethylpropyl)-2-methylcyclobutane]: the MIC in the data set on S. aureus worked out at 3.1 µg/mL (≈ 9.55 µM).
Still for that read-out and setting: to `CCCCCC1c2ccc(O)cc2-c2cc(O)ccc21` [Example 34, 9-Pentyl-9H-fluorene-3,6-diol] belongs 3.1 µg/mL (≈ 11.6 µM).
In turn, `C[C@H]1[C@H](CC(C)(C)C)CC1(c1ccc(O)c(Cl)c1)c1ccc(O)c(Cl)c1` (relative stereo) [Example 26, Trans-1,1-Di(3-chloro-4-hydroxyphenyl)-3-(2,2-dimethylpropyl)-2-methylcyclobutane] yielded a melting point of 126 to 128 °C. In the data set with S. aureus, the MIC was 0.8 µg/mL (≈ 2.03 µM).
For the compound `C=CCc1cc(C2(c3ccc(O)c(CC=C)c3)CC(CCCC)C2)ccc1O` [Example 33, 1,1-Di(3-allyl-4-hydroxyphenyl)-3-n-butylcyclobutane], the MIC in the data set with S. aureus came out at 1.6 µg/mL (≈ 4.25 µM).
Regarding `CCCCC1CC(c2ccc(O)c(CC)c2)(c2ccc(O)c(CC)c2)C1` [Example 29, 1,1-Di(3-ethyl-4-hydroxyphenyl)-3-n-butylcyclobutane], the melting point lay within 135 to 138 °C. For the same compound, the MIC in the data set on S. aureus came to 0.8 µg/mL (≈ 2.27 µM).
Turning to `Cc1cc(C2(c3ccc(O)c(C)c3)CC(C(C)(C)C)C2)ccc1O` [Example 16, 1,1-Di-(4-hydroxy-3-methylphenyl)-3-(1,1-dimethylethyl)cyclobutane], the MIC in the data set with S. aureus was determined as 0.8 µg/mL (≈ 2.47 µM).
The same measure, in the same setting: then `Cc1cc(C2(c3cc(C)c(O)c(Cl)c3)C[C@@H](CC(C)(C)C)[C@@H]2C)cc(Cl)c1O` (relative stereo) [Example 27, Trans-1,1-di(5-chloro-4-hydroxy-3-methylphenyl)-3-(2,2-dimethylpropyl)-2-methylcyclobutane], with 0.8 µg/mL (≈ 1.9 µM); and `CCCCC1CC1(c1ccc(O)cc1)c1ccc(O)cc1` (stereo not drawn) [Example 18, 1,1-Di(4-hydroxyphenyl)-2-n-butylcyclopropane], with 3.1 µg/mL (≈ 11 µM); and `CCCCCC1CC1(c1ccc(O)cc1)c1ccc(O)cc1` (stereo not drawn) [Example 19, 1,1-Di(4-hydroxyphenyl)-2-n-pentylcyclopropane], with 6.2 µg/mL (≈ 20.9 µM).
`C[C@H]1[C@@H](CC(C)(C)C)CC1(c1ccc(O)cc1)c1ccc(O)cc1` (relative stereo) [Example 14, Cis-1,1-di(4-hydroxyphenyl)-3-(2,2-dimethylpropyl)-2-methylcyclobutane] yielded a melting point of 79 to 81 °C. In addition, the MIC in the data set on S. aureus was determined as 0.8 µg/mL (≈ 2.47 µM).
In the case of `CCCCC1CC(c2ccc(O)cc2)(c2ccc(O)cc2)C1` [Example 6, 1,1-Bis(4-hydroxyphenyl)-3-n-butyl-cyclobutane], the MIC worked out at 3 µg/mL (≈ 10.1 µM) in the data set with C. diphtheriae; 13 µg/mL (≈ 43.9 µM) in the data set with H. influenzae; 3 µg/mL (≈ 10.1 µM) in the data set with M. catarrhalis; 6 µg/mL (≈ 20.2 µM) in the data set with S. pneumoniae; 3 µg/mL (≈ 10.1 µM) in the data set on E. faecalis; 3 µg/mL (≈ 10.1 µM) in the data set with M. smegimatis. Moreover, the MIC was 13 µg/mL (≈ 43.9 µM) in the data set on S. pyogenes, 4 µg/mL (≈ 13.5 µM) in the data set on S. aureus and 3 µg/mL (≈ 10.1 µM) in the data set on S. epidermidis.
The compound `CCCCC1CC(c2cc(C)c(O)c(C)c2)(c2cc(C)c(O)c(C)c2)C1` [Example 30, 1,1-Di(3,5-dimethyl-4-hydroxyphenyl)-3-n-butylcyclobutane] registered a melting point of 138 to 141 °C. The MIC with S. aureus is 0.8 µg/mL (≈ 2.27 µM).
`CCCCCC1CC1(c1ccc(O)c(Cl)c1)c1ccc(O)c(Cl)c1` (stereo not drawn) [Example 22, 1,1-Di(3-chloro-4-hydroxyphenyl)-2-pentylcyclopropane]: in the data set with S. aureus, the MIC was 1.6 µg/mL (≈ 4.38 µM).
`CC(C)(C)CC1CC(c2ccc(O)c(Cl)c2)(c2ccc(O)c(Cl)c2)C1` [Example 24, 1,1-Di-(3-chloro-4-hydroxyphenyl)-3-(2,2-dimethylpropyl)cyclobutane] showed a melting point of 131 to 134 °C. Further, in the data set with S. aureus, the MIC is 1.6 µg/mL (≈ 4.22 µM).
For `CC(C)(C)CC1CC(c2ccc(O)cc2)(c2ccc(O)cc2)C1` [Example 11, 1,1-Di(4-hydroxyphenyl)-3-(2,2-dimethylpropyl)cyclobutane], in that order: 182 to 184 °C and 12.5 µg/mL (≈ 40.3 µM).
Regarding `CCCCC1CC1(c1ccc(O)c(Cl)c1)c1cc(Cl)c(O)c(Cl)c1` (stereo not drawn) [Example 21, 1-(3-Chloro-4-hydroxyphenyl)-1-(4-hydroxy-3,5-dichlorophenyl)-2-n-butylcyclopropane], in the data set on S. aureus, the MIC amounted to 3.1 µg/mL (≈ 8.04 µM).

The values are drawn from patent US20050148570A1, “Novel substituted alkane compounds and uses thereof” (priority 2001, published 2005).
